Laboratory results reported in patent publication US10562857B2 (AFASCI, Inc., priority 2015, dated 2020).

Assays:
[1] = target: T1, Cav3.3 (Homo sapiens, UniProt Q9P0X4); assay: Whole-cell patch clamp of T-type Cav3.3 channel expressed in HEK293 cells; format: cell-based; details: Table 2
T1 construct: expressed in transfected cells; host or cells: HEK-293, tetracycline inducible expression system (Invitrogen)
Method: Cav3.1, Cav3.2 or Cav3.3 channels were expressed in human embryonic kidney (HEK)-293 cells using a tetracycline inducible expression system (Invitrogen). Cells were maintained in 25 cm^2 tissue culture flasks at 37° C., 5% CO2, and 100% relative humidity in D-MEM/F12 (Dulbecco's Modified Eagle Medium/Nutrient Mixture F-12; Gibco) supplemented with fetal bovine serum (FBS, 10% v/v), sodium pyruvate (0.5 mM, Gibco), penicillin-streptomycin (100 U/mL, 100 μg/mL) and Geneticin® Selective antibiotic (G418; 0.5 mg/mL). Cells were detached from the flask base using a non-enzymatic cell dissociation solution (Cellstripper, Corning), removed and re-seeded on to poly-D-lysine coated glass coverslips in 35 mm dishes.
Whole-cell voltage clamp recordings were performed on rat or mouse DRG neurons within 2 days after acutely dissociation or cultured HEK293 cells expressing T-type channels (encoded by Cav3.1, Cav3.2 or Cav3.3 channels). All experiments were performed at room temperature (around 21° C.). Whole-cell currents were recorded using a MultiClamp 700B amplifier and analyzed offline with pCLAMP10.4 software (Molecular Devices, LLC, Sunnyvale Calif., USA). […] Since the sodium ions were absent in the external solution, tetrodoctoxin was not needed. Calcium currents were recorded at a holding potential of −100 mV and then depolarized to −30 mV for 100 ms to activate either Cav3.1, Cav3.2, or Cav3.3 expressed in HEK cells. An interpulse interval of 10 seconds allowed the channel recovery from inactivation, and achieved stable current recordings. To record sodium (Na^+) currents in DRG neurons, the external solution used the modified Krebs solution specified above. The internal solution was composed (in mM) of 120 CsF, 10 HEPES, 11 EGTA, 1 CaCl2, 1 MgCl2, 10 TEA-Cl, 4 MgATP and 0.3 MgGTP (pH 7.3-7.4 adjusted with CsOH). […] To record potassium currents in DRG neurons, the external solution used the modified Kreb's solution specified above. The internal solution was composed (in mM) of 65 KCl, 80 KF, 5 KOH, 10 EGTA, 2 MgATP (pH 7.3-7.4 adjusted with KOH). Recording electrodes were fabricated using a P-87 puller (Sutter Instrument Co., Novato, Calif., USA). The tip of resistance was 3-4 MQ in bath and the series resistance was less than 10 MΩ after whole cell configuration. All reagents were purchased from Sigma unless specified otherwise. Test compounds were usually applied via a rapid solution exchange system with 8 fine polyplastic tubings (100 μm, OD) glued in a holder in parallel and located closely to the recorded cells. The current responses were normalized to the control, percent inhibition was calculated and sigmoidal dose-response curves were generated using XLFit (IDBS, Surrey, UK) or Prism (GraphPad Software, La Jolla, Calif., US) to calculate IC50 values and Hill slopes using the following equation Y=Bottom+(Top−Bottom)/(1+10^((Log EC50−X)[…])).

[2] = test system: DRG ion channels K+; assay: Potassium currents in DRG neurons, patch clamp; format: cell-based, rodent; details: Table 2
Method: All the procedures related to animal handling were in strict accordance with NIH guidelines and IACUC approved protocols. Briefly, the spine was taken out and split into two halves from the middle line after sacrificing the mice by decapitation. […] The DRG neurons were minced with fine scissors and incubated at 35° C. for 50 min. […] Finally the cells were dispersed onto poly-1-ornithine-coated cover slips and maintained in a modified Krebs solution with streptomycin sulfate (0.2 mM), Penicillin G Sodium (0.3 mM), and Gentamycin (0.1 mM) at 21° C. […] All experiments were performed at room temperature (around 21° C.). Whole-cell currents were recorded using a MultiClamp 700B amplifier and analyzed offline with pCLAMP10.4 software (Molecular Devices, LLC, Sunnyvale Calif., USA). […] The internal solution was composed (in mM) of 125 CsCl, 10 HEPES (acid), 10 EGTA (ethylene glycol tetraacetic acid), 1 CaCl2, 1 MgCl2, 4 MgATP and 0.3 […] 7.3-7.4 adjusted with CsOH; osmolality verified as 295 mOsm/kg). Since the sodium ions were absent in the external solution, tetrodoctoxin was not needed. […] To record sodium (Na^+) currents in DRG neurons, the external solution used the modified Krebs solution specified above. […] To record potassium currents in DRG neurons, the external solution used the modified Kreb's solution specified above. The internal solution was composed (in mM) of 65 KCl, 80 KF, 5 KOH, 10 EGTA, 2 MgATP (pH 7.3-7.4 adjusted with KOH). Recording electrodes were fabricated using a P-87 puller (Sutter Instrument Co., Novato, Calif., USA). […] All reagents were purchased from Sigma unless specified otherwise. […] Selectivity among the three subtypes of the Cav3 T-type channel, and off-target effects on other key ion channels of the representative example compounds are presented in Table 2. Sodium and potassium channels in the rodent DRG neurons were recorded and tested as described above. The human ether-a-go-go-related gene (hERG) encodes the rapidly activating potassium channel (IKr) contributing to the repolarization of the cardiac action potential. The blockade of hERG can lead to a QT prolongation in the electrocardiogram known as long QT syndrome (Sanguinetti, et al., 1995). Therefore the representative example compounds in Table 2 were tested against the hERG channel.

[3] = test system: PTZ-induced seizures in mice; assay: Pentylenetetrazol (PTZ)-induced seizures in mice; format: in vivo, mouse; details: for latency to seizures / fatality latency / fatality rate: 30 mg/kg I.P., PTZ 40 mg/kg I.P.; for fatality latency / fatality rate: 20 min cutoff; for PTZ-induced Fatality (%): 30 mg/kg I.P. 60 min before PTZ 40 mg/kg I.P., death within 20 min
Method: FIG. 10. […] Sixty minutes (min) prior to receiving PTZ (40 mg/kg, I.P.), each mouse was pretreated with either an Example compound, ML218, Z944 or vehicle (2% DMSO in 0.5% HPC). Fatality rate (%) of mice in each group that dies within the 20 minutes observation period—was calculated. Both fatality rate and latency (data not shown) to death were used to evaluate the Example compound's ability to prevent death resulting from PTZ-induced seizures. A cutoff of 20 minutes was set for observational and statistical analysis purposes.
It is well known that antiepileptics, e.g. carbamazepine, lamotrigine and gabapentin are used for the treatment of neuropathic pain (Xie et al., 1995, Caviedes and Herranz, 2001). T-channel overactivation is involved in the generation of seizure activity (Huguenard, 1998, Cribbs et al., 2000, Perez-Reyes et al., 2009, Perez-Reyes, 2010). […] Fatality latency and rate—the percentage (%) of mice in each treatment group that died within a 20 minute cutoff of the observational period, were recorded and calculated. Averaged fatality latency and rate of each treatment group was used to evaluate the Example compound's ability to either prevent or delay the onset of PTZ-induced seizures and death.

T1 sequence (Q9P0X4 whole entry, species assumed): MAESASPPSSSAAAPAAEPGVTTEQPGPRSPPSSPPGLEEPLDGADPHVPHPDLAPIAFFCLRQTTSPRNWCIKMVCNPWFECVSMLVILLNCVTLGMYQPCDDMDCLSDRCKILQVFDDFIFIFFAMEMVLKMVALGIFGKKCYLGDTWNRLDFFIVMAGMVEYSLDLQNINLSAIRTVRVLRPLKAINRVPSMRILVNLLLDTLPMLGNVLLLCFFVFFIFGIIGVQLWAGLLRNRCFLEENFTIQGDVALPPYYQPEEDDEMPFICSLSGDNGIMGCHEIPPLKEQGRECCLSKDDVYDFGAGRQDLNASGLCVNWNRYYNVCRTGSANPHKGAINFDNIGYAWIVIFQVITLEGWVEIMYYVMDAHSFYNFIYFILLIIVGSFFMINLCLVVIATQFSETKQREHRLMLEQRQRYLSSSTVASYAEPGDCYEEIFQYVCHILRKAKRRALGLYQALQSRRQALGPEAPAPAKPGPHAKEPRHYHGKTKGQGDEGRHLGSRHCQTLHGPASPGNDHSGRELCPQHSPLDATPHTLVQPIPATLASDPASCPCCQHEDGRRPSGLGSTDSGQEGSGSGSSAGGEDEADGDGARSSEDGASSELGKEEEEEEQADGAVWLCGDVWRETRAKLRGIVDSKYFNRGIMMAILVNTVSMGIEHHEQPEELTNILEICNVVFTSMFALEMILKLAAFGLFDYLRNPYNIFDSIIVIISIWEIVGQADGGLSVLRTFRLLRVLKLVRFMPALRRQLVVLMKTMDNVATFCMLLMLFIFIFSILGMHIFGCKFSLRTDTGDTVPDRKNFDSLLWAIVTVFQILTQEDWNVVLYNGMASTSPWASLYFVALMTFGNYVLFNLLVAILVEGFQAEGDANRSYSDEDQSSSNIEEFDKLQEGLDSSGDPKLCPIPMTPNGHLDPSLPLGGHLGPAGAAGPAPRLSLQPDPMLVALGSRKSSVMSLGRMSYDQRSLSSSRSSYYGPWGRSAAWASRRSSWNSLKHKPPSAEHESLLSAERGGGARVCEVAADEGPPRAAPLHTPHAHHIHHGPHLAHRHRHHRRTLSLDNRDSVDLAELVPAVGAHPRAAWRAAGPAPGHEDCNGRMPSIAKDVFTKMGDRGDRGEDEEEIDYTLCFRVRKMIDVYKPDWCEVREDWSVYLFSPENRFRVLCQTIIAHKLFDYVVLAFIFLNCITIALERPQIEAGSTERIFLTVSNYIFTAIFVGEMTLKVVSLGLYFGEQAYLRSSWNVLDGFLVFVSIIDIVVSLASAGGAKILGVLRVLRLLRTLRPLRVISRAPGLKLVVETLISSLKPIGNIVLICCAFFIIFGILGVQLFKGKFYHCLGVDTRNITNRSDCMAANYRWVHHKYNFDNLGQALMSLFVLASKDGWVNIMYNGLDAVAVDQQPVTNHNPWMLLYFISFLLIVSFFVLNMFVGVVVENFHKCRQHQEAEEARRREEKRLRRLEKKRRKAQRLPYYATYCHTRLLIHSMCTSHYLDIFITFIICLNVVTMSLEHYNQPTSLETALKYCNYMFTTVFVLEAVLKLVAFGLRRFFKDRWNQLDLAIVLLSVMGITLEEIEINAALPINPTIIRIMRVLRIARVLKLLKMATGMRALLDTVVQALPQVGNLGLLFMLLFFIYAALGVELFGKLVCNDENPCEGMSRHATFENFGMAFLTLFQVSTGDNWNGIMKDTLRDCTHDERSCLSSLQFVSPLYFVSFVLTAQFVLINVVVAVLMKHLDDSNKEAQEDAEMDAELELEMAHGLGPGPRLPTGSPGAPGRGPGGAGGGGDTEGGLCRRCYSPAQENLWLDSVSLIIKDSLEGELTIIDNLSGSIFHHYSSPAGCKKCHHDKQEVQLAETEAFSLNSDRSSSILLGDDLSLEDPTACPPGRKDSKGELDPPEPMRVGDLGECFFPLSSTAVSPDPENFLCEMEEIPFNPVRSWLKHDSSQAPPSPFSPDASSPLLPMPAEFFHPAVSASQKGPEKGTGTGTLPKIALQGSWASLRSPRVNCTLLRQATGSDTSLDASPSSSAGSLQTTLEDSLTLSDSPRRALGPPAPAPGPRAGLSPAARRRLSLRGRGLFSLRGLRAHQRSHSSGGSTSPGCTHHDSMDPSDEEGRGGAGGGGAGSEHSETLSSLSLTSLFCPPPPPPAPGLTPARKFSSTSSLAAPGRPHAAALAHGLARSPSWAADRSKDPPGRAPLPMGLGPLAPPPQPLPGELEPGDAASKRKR

SMILES | IC50 [1] | IC50 [2] | latency to seizures [3] | fatality latency [3] | fatality rate [3] | PTZ-induced Fatality (%) [3]
CC(C)(C)NC(=O)CN1CCC2(CC1)C[C@H]2NC(=O)c1cc(Cl)cc(Cl)c1 (single isomer, unassigned) [Example 57, (R)—N-(6-(2-(tert-Butylamino)-2-oxoethyl)-6-azaspiro[2.5]octan-1-yl)-3,5-dichlorobenzamide or (S)—N-(6-(2-(tert-Butylamino)-2-oxoethyl)-6-azaspiro[2.5]octan-1-yl)-3,5-dichlorobenzamide] | 98 nM | > 100000 nM | significantly prolonged latencies to seizures | prolonged fatality latencies | decreased the fatality rate | –
CC(C)(C)NC(=O)CN1CCC2(CC1)C[C@H]2C(=O)Nc1cc(C(F)(F)F)cc(C(F)(F)F)c1 (single isomer, unassigned) [Example 132, (R)—N-(3,5-Bis(trifluoromethyl)phenyl)-6-(2-(tert-butylamino)-2-oxoethyl)-6-azaspiro[2.5]octane-1-carboxamide or (S)—N-(3,5-Bis(trifluoromethyl)phenyl)-6-(2-(tert-butylamino)-2-oxoethyl)-6-azaspiro[2.5]octane-1-carboxamide] | 7610 nM | > 100000 nM | significantly prolonged latencies to seizures | prolonged fatality latencies | decreased the fatality rate | –
CC(C)(C)NC(=O)CN1CCC2(CC1)C[C@H]2NC(=O)C12CC3CC(CC(C3)C1)C2 (single isomer, unassigned) [Example 145, N—((R)-6-(2-(tert-butylamino)-2-oxoethyl)-6-azaspiro[2.5]octan-1-yl)adamantane-1-carboxamide or N—((S)-6-(2-(tert-butylamino)-2-oxoethyl)-6-azaspiro[2.5]octan-1-yl)adamantane-1-carboxamide] | 310 nM | > 30000 nM | significantly prolonged latencies to seizures | prolonged fatality latencies | decreased the fatality rate | –
CC(C)(C)NC(=O)CN1CCC2(CC1)C[C@H]2NC(=O)c1cc(F)cc(C(F)(F)F)c1 (single isomer, unassigned) [Example 130, (R)—N-(6-(2-(tert-Butylamino)-2-oxoethyl)-6-azaspiro[2.5]octan-1-yl)-3-fluoro-5-(trifluoromethyl)benzamide or (S)—N-(6-(2-(tert-Butylamino)-2-oxoethyl)-6-azaspiro[2.5]octan-1-yl)-3-fluoro-5-(trifluoromethyl)benzamide] | 280 nM | > 100000 nM | significantly prolonged latencies to seizures | prolonged fatality latencies | decreased the fatality rate | –
CC(C)(C)NC(=O)CN1CCC2(CC1)CC2C(=O)Nc1cc(F)cc(C(F)(F)F)c1 (centres unmarked) [Example 141, 6-(2-(tert-Butylamino)-2-oxoethyl)-N-(3-fluoro-5-(trifluoromethyl)phenyl)-6-azaspiro[2.5]octane-1-carboxamide] | 230 nM | > 30000 nM | significantly prolonged latencies to seizures | prolonged fatality latencies | decreased the fatality rate | –
CC(C)(C)CCN1CCC2(CC1)C[C@H]2NC(=O)c1cc(C(F)(F)F)ccc1Cl (single isomer, unassigned) [Example 147, (R)-2-Chloro-N-(6-(3,3-dimethylbutyl)-6-azaspiro[2.5]octan-1-yl)-5-(trifluoromethyl)benzamide or (S)-2-Chloro-N-(6-(3,3-dimethylbutyl)-6-azaspiro[2.5]octan-1-yl)-5-(trifluoromethyl)benzamide] | 1580 nM | > 100000 nM | significantly prolonged latencies to seizures | prolonged fatality latencies | decreased the fatality rate | –
CC(C)(C)NC(=O)CN1CCC2(CC1)CC2NC(=O)c1cc(F)cc(Cl)c1 (single isomer, unassigned) [Example 128, (S)—N-(6-(2-(tert-Butylamino)-2-oxoethyl)-6-azaspiro[2.5]octan-1-yl)-3-chloro-5-fluorobenzamide or (R)—N-(6-(2-(tert-Butylamino)-2-oxoethyl)-6-azaspiro[2.5]octan-1-yl)-3-chloro-5-fluorobenzamide] | 750 nM | > 100000 nM | significantly prolonged latencies to seizures | prolonged fatality latencies | decreased the fatality rate | 16.7%
CC(C)(C)NC(=O)CN1CCC(CNC(=O)c2cc(F)cc(Cl)c2)CC1 [Z944, reference compound] | 570 nM | > 30000 nM | significantly prolonged latencies to seizures | prolonged fatality latencies | decreased the fatality rate | 33.3%
CC(C)(C)CCN1CCC2(CC1)C[C@H]2NC(=O)c1cc(C(F)(F)F)cc(C(F)(F)F)c1 (single isomer, unassigned) [Example 146, (R)—N-(6-(3,3-dimethylbutyl)-6-azaspiro[2.5]octan-1-yl)-3,5-bis(trifluoromethyl)benzamide or (S)—N-(6-(3,3-dimethylbutyl)-6-azaspiro[2.5]octan-1-yl)-3,5-bis(trifluoromethyl)benzamide] | 110 nM | > 100000 nM | significantly prolonged latencies to seizures | prolonged fatality latencies | decreased the fatality rate | –
